From publication PMC2679894 (Journal of molecular biology, 2009)

Biological target: KsgA (Thermus thermophilus, UniProt Q5SM60)
Assay: X-ray crystal structure
Details: cofactor-binding site; co-crystallised with 4 mM adenosine and 4 mM AdoMet, 50 °C for 10 min; crystal form KsgA2

KsgA, sequence (Q5SM60 whole entry): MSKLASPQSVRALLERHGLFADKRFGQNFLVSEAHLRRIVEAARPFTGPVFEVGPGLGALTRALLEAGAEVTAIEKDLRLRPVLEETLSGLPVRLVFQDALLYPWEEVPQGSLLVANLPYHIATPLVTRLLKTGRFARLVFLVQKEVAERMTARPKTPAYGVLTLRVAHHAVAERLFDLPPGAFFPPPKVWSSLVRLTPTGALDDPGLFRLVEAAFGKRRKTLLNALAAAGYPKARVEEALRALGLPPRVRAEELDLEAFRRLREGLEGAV

## Nc1ncnc2c1ncn2[C@@H]1O[C@H](CO)[C@@H](O)[C@H]1O [adenosine]
  X-ray crystal structure: these crystals were found to have adenosine in the cofactor-binding site
